Data published in ChEMBL document CHEMBL1909046, “DrugMatrix in vitro pharmacology data”.
pIC50, pKi: −log10 of the molar value.

Assays:
[1] = target: Beta-2 adrenergic receptor (Homo sapiens, UniProt P07550); experiment: DRUGMATRIX: Adrenergic beta2 radioligand binding (ligand: [3H] CGP-12177); type: cell membranes, CHO, Membrane; conditions: Not Active = under 50% inhibition at 10 µM; for IC50 / Ki: cho
[2] = target: 5-hydroxytryptamine receptor 6 (Homo sapiens, UniProt P50406); type: cell membranes, HeLa, Membrane; conditions: for IC50 / Ki: hela; for pIC50: read-out: IC50; for pKi: read-out: Ki; as to all read-outs here: in other assays of this panel Not Active means under 50% inhibition at 10 µM
[3] = target: T1, Vasoactive intestinal polypeptide receptor 1 (Homo sapiens, UniProt P32241); type: cell membranes, Membrane; conditions: ht-29; also: in other assays of this panel Not Active means under 50% inhibition at 10 µM
T1 sequence (P32241 whole entry): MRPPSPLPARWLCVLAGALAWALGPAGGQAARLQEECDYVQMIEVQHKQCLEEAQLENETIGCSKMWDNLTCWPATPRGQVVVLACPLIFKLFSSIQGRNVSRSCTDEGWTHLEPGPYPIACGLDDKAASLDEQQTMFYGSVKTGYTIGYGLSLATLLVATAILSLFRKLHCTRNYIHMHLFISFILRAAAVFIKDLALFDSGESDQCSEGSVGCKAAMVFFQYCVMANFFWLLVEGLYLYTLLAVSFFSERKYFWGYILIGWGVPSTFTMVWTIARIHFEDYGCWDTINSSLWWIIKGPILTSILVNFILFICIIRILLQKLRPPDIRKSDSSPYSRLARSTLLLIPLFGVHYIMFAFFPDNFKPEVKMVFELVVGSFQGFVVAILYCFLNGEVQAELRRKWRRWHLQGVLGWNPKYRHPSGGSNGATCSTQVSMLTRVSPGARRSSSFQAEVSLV

[4] = target: T2, Endothelin-1 receptor (Homo sapiens, UniProt P25101); type: cell membranes, Membrane; conditions: cho-k1; also: in other assays of this panel Not Active means under 50% inhibition at 10 µM
T2 sequence (P25101 whole entry): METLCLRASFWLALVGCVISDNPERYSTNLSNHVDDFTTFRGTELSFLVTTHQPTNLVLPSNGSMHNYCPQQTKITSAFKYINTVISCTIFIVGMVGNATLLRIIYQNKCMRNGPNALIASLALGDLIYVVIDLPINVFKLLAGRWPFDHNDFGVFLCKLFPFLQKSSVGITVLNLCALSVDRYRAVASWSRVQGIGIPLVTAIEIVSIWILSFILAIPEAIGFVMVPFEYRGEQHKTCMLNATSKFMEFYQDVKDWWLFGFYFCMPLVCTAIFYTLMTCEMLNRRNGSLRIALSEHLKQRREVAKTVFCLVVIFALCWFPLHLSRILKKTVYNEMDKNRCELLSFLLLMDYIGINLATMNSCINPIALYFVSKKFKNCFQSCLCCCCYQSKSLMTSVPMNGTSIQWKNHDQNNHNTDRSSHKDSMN

[5] = target: Protein kinase C alpha type (Homo sapiens, UniProt P17252); type: cell-based; conditions: sf9;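 also: inhibition of PKCalpha kinase activity measured in an enzyme assay with histone as the phosphorylation substrate; in other assays of this panel Not Active means under 50% inhibition at 10 µM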
[6] = target: T3, 5-hydroxytryptamine receptor 1A (Rattus norvegicus, UniProt P19327); type: cell membranes, CHO-K1, Membrane; conditions: for IC50 / Ki: cho-k1; for pIC50: read-out: IC50; for pKi: read-out: Ki
T3 sequence (P19327 whole entry): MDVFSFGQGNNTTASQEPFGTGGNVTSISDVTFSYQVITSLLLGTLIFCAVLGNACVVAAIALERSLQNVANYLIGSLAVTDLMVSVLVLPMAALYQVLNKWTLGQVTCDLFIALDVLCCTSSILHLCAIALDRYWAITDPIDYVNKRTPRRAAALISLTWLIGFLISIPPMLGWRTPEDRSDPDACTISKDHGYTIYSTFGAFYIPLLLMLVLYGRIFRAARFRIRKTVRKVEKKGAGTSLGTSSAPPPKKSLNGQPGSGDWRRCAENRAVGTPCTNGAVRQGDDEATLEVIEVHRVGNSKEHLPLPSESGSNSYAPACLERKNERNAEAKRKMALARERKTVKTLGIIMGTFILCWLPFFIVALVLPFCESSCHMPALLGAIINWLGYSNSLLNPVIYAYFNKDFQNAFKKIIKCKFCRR

Sequence of 5-hydroxytryptamine receptor 6 (P50406 whole entry): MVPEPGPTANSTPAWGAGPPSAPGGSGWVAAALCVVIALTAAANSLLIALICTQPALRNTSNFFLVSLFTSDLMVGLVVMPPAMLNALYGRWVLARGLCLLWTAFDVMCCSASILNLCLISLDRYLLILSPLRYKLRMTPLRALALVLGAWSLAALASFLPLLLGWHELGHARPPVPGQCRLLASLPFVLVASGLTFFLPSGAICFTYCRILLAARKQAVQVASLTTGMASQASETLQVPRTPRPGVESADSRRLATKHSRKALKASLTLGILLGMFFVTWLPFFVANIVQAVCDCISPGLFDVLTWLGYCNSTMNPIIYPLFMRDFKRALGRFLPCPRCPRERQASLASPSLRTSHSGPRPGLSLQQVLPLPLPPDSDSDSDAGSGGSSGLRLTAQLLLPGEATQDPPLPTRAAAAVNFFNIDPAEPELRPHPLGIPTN

| Compound | IC50 [1] | IC50 [2] | IC50 [3] | IC50 [4] | IC50 [5] | IC50 [6] | pIC50 [2] | pKi [2] | pIC50 ([1]; read-out: IC50) | pKi ([1]; read-out: Ki) | pIC50 [6] | pKi [6] | Ki [1] | Ki [2] | Ki [3] | Ki [4] | Ki [5] | Ki [6] |
| --- | --- | --- | --- | --- | --- | --- | --- | --- | --- | --- | --- | --- | --- | --- | --- | --- | --- | --- |
| CCCCC(=O)N(Cc1ccc(-c2ccccc2-c2nnn[nH]2)cc1)[C@H](C(=O)O)C(C)C | Not Active | Not Active | Not Active | Not Active | Not Active | Not Active |  |  |  |  |  |  |  |  |  |  |  |  |
| O=C(O)COc1ccc(C(=O)c2cccs2)c(Cl)c1Cl | Not Active | Not Active | Not Active | Not Active | Not Active | Not Active |  |  |  |  |  |  |  |  |  |  |  |  |
| CN1[C@@H]2CC[C@H]1C[C@@H](OC(c1ccccc1)c1ccccc1)C2 [BENZTROPINE] | Not Active |  | Not Active | Not Active | Not Active | Not Active | 5.55 | 5.89 |  |  |  |  |  |  |  |  |  |  |
| C[C@@](Cc1ccc(O)c(O)c1)(NN)C(=O)O.O [CARBIDOPA] | Not Active | Not Active | Not Active | Not Active | Not Active | Not Active |  |  |  |  |  |  |  |  |  |  |  |  |
| CN1CCN(C2=Nc3cc(Cl)ccc3Nc3ccccc32)CC1 [CLOZAPINE] | Not Active |  | Not Active | Not Active | Not Active |  |  |  |  |  |  |  |  |  |  |  |  |  |
| CC(C)NC[C@@H](O)COc1cccc2ccccc12 [DEXPROPRANOLOL] |  | Not Active | Not Active | Not Active | Not Active |  |  |  |  |  |  |  |  |  |  |  |  |  |
| CC(C)NC[C@H](O)COc1cccc2ccccc12 [LEVOPROPRANOLOL] |  |  | Not Active | Not Active | Not Active |  | 6.00 | 6.33 |  |  |  |  |  |  |  |  |  |  |
| O=C(O)CCCCC1CCSS1 (stereo not drawn) [LIPOIC ACID, ALPHA] | Not Active | Not Active | Not Active | Not Active | Not Active | Not Active |  |  |  |  |  |  |  |  |  |  |  |  |
| CN(C)C(=O)C(CCN1CCC(O)(c2ccc(Cl)cc2)CC1)(c1ccccc1)c1ccccc1 [LOPERAMIDE] |  | Not Active | Not Active | Not Active | Not Active | Not Active |  |  | 5.52 | 5.68 |  |  |  |  |  |  |  |  |
| Clc1ccc(COC(Cn2ccnc2)c2ccc(Cl)cc2Cl)c(Cl)c1 (centres undefined) [MICONAZOLE] | Not Active |  | Not Active | Not Active | Not Active |  | 4.96 | 5.30 |  |  | 4.94 | 5.18 |  |  |  |  |  |  |
| Oc1ccc2c3c1O[C@H]1[C@@H](O)CC[C@@]4(O)[C@@H](C2)N(CC2CCC2)CC[C@]314 [NALBUPHINE] | Not Active | Not Active | Not Active | Not Active | Not Active | Not Active |  |  |  |  |  |  |  |  |  |  |  |  |
| C[C@]12C=CC(=O)C=C1CC[C@@H]1[C@@H]2C(=O)C[C@@]2(C)[C@H]1CC[C@]2(O)C(=O)CO [PREDNISONE] | Not Active | Not Active | Not Active | Not Active | Not Active | Not Active |  |  |  |  |  |  |  |  |  |  |  |  |
| OCCOCCN1CCN(C2=Nc3ccccc3Sc3ccccc32)CC1 [QUETIAPINE] | Not Active | Not Active | Not Active | Not Active | Not Active |  |  |  |  |  |  |  |  |  |  |  |  |  |
| COC(=O)[C@H]1[C@H]2C[C@@H]3c4[nH]c5cc(OC)ccc5c4CCN3C[C@H]2C[C@@H](OC(=O)c2cc(OC)c(OC)c(OC)c2)[C@@H]1OC [RESERPINE] | Not Active | Not Active | Not Active | Not Active | Not Active | Not Active |  |  |  |  |  |  |  |  |  |  |  |  |
| O=C(O)c1ccccc1O [SALICYLIC ACID] | Not Active | Not Active | Not Active | Not Active | Not Active | Not Active |  |  |  |  |  |  |  |  |  |  |  |  |
| C[S+]([O-])c1ccc(-c2nc(-c3ccncc3)c(-c3ccc(F)cc3)[nH]2)cc1 (centres undefined) [SB-203580] | Not Active | Not Active | Not Active | Not Active | Not Active | Not Active |  |  |  |  |  |  |  |  |  |  |  |  |
| CC1CCC(NC(=O)N(CCCl)N=O)CC1 (centres undefined) [SEMUSTINE] | Not Active | Not Active | Not Active | Not Active | Not Active | Not Active |  |  |  |  |  |  |  |  |  |  |  |  |
| O=C1C[C@@H]2OCC=C3CN4CC[C@]56c7ccccc7N1[C@H]5[C@H]2[C@H]3C[C@H]46 [STRYCHNINE] | Not Active | Not Active | Not Active | Not Active | Not Active | Not Active |  |  |  |  |  |  |  |  |  |  |  |  |
| C[N+](C)(C)CCOC(=O)CCC(=O)OCC[N+](C)(C)C.[Cl-].[Cl-] [SUCCINYLCHOLINE CHLORIDE] | Not Active | Not Active | Not Active | Not Active | Not Active | Not Active |  |  |  |  |  |  |  |  |  |  |  |  |
| Nc1ccc(S(=O)(=O)NC(=O)c2ccccc2)cc1 [SULFABENZAMIDE] | Not Active | Not Active | Not Active | Not Active | Not Active | Not Active |  |  |  |  |  |  |  |  |  |  |  |  |
| CCCCCCCCNC(C)C(O)c1ccc(SC(C)C)cc1 (centres undefined) [SULOCTIDIL] | Not Active | Not Active | Not Active | Not Active | Not Active |  |  |  |  |  | 6.26 | 6.51 |  |  |  |  |  |  |
| O=c1[nH]c(=O)n(C2CCCO2)cc1F (centres undefined) [TEGAFUR] | Not Active | Not Active | Not Active | Not Active | Not Active | Not Active |  |  |  |  |  |  |  |  |  |  |  |  |
| CC(=N)S [THIOACETAMIDE] | Not Active | Not Active | Not Active | Not Active | Not Active | Not Active |  |  |  |  |  |  |  |  |  |  |  |  |
| Cc1ccc(C(=O)c2ccc(CC(=O)O)n2C)cc1 [TOLMETIN] | Not Active | Not Active | Not Active | Not Active | Not Active | Not Active |  |  |  |  |  |  |  |  |  |  |  |  |
| CC(=O)OCC(COC(C)=O)OC(C)=O [TRIACETIN] | Not Active | Not Active | Not Active | Not Active | Not Active | Not Active |  |  |  |  |  |  |  |  |  |  |  |  |
| CN1CCN(CCCN2c3ccccc3Sc3ccc(C(F)(F)F)cc32)CC1 [TRIFLUOPERAZINE] | Not Active | Not Active | Not Active | Not Active | Not Active | Not Active |  |  |  |  |  |  |  |  |  |  |  |  |
| TRANSPLATIN | Not Active | Not Active | Not Active | Not Active | Not Active | Not Active |  |  |  |  |  |  | Not Active | Not Active | Not Active | Not Active | Not Active | Not Active |
| ZIRCONIUM(IV) CHLORIDE | Not Active | Not Active | Not Active | Not Active | Not Active | Not Active |  |  |  |  |  |  | Not Active | Not Active | Not Active | Not Active | Not Active | Not Active |
